Assay results published in patent US12629348B2, “Method and composition for treating osteoarthritis” (Vireo Systems, Inc., priority 2013, dated 2026).

What was measured:
[1] = test system: canines having OA; assay: Double-blind randomized trial in OA canines: owner assessment of pain and mobility (Helsinki chronic pain index, HCPI); assay type: in vivo, canine
Procedure: The following example evaluates the effectiveness of Alpha-GEE on both pain and mobility in a double-blind randomized trial in canines having OA. […] Together these findings provide clinical evidence of the effectiveness of treatments with Alpha-GEE in reducing the pain and restricted mobility of canines with OA.
(§1) The double-blind study was performed on a total of 30 adult canines of various breeds in five different private practice clinics. Owner consent was obtained prior to participation in the study. Each clinic was responsible for enrolling 6 canines into the study. Inclusion criteria for the study consisted of clinical assessment and radiograph confirmation of OA in at least one joint and a score of 22 or greater on the Helsinki chronic pain index (“HCPI”). Use of NSAIDs or other dietary supplements for OA were allowed, provided the current treatment regimens had not been altered for a period of at least three months. A randomized block design was used with canines assigned in a one to one ratio into either placebo (36 mg/kg/day maltose-dextran; Vireo Resources, Plattsmouth, NE) or Alpha-GEE (36 mg/kg/day; Vireo Resources, Plattsmouth, NE) treatment group. The block size was six canines, corresponding to the total number of canines enrolled from each clinic. Group assignments for each canine were blinded to both the owners and attending veterinarian until all the data was collected and reported. Both Alpha-GEE and placebo were provided in 400 mg capsules and owners were instructed on the proper method for daily oral administration of capsules to their canines and provided with the appropriate number of capsules for the duration of the 2-week study. Blood samples were taken at both the start and conclusion of the two-week trial period to monitor for changes in blood chemistry as well as potential changes in inflammatory markers as described below. Owners completed the HCPI prior to starting the study, one-week after starting the study, and a final time at the conclusion of the study at two-weeks.
Statistical evaluations of pain (HCPI), mobility (pedometer readings), and inflammatory markers were performed using ANOVA and Student Newman Keuls post-hoc comparison of means.
Owner assessment of pain and mobility in canines participating in the trial were based on the HCPI. The HCPI is a method for appraisal of pain and mobility in canines. The assessment is based on owner responses to eleven questions with a numerical answer between 0-4. Scoring on the HCPI ranges from 0 to 44, with higher numbers reflecting more pain and immobility present in the canine. Canines in both placebo and treatment group had similar initial pre-trial HCPI scores. […]

[2] = Standard blood chemistry profile of OA canines for trial period; assay type: in vivo, canine; conditions: 36 mg/kg/day oral
Procedure: as §1
In addition to the standard blood chemistry profile, blood samples taken before and at the conclusion of the two-week trial period were analyzed for PGE2 and SAA. Blood samples were collected in heparin tubes for PGE2 and in serum collection tubes for SAA. Both plasma and serum samples were centrifuged at 2000×g for 10 minutes and the plasma and serum supernatants removed and frozen at […] until analyzed for PGE2 and SAA using enzyme-linked immunosorbent assays ([…]). Of the 30 canines enrolled, 8 were excluded from the blood analysis portion of the study due to sampling/storage issues resulting in a lack of a pre- or post-trial sample. As PGE2 is rapidly metabolized in plasma, measurement of PGE2 metabolites is the most reliable method for assessing plasma levels of PGE2. Plasma samples were analyzed for PGE2 using the bicycle PGE2 competitive EIA kit purchased from Cayman Chemical (Ann Arbor, MI). The assay converts PGE2 metabolites into a stable derivative that is measured using EIA. Samples (100 μl) were analyzed in triplicate and PGE2 concentrations determined by use of standard curve. For SAA measurements, a solid phase sandwich EIA kit (Tridelta Development Ltd, Maytooth, Co Kildare, Ireland) was used as described previously.

[3] = test system: brain endothelial cells; assay: Release of PGE2 from brain endothelial cells exposed to bacterial endotoxin; assay type: cell-based; conditions: FIG. 1
Excerpt: The brain endothelial cells were first exposed to bacterial endotoxin.

[4] = test system: cultured canine chondrocytes; assay: PGE2 release in cultured canine chondrocytes challenged with IL1b; assay type: cell-based; conditions: 100 μM, IL1b challenge, FIG. 3
Procedure: The study involved the use of cultured canine chondrocytes (i.e., cells within the joint that are activated during OA). The canine chondrocytes were subjected to an inflammatory challenge in the form of cytokine Interleukin 1 beta (“IL1b”). The canine chondrocytes were then treated with various anti-inflammatory compounds including Alpha-GEE; glucosamine; a TNFα receptor antagonist; and a NSAID (Rimadyl). Alpha-GEE was administered in concentrations ranging from 10 μM to 1000 μM. The resulting effects of the various treatments on both PGE2 release and TNFα release were examined.
Alpha-GEE, glucosamine, and Rimadyl were used in a concentration of 100 μM, while the TNFα inhibitor was used in a concentration of 1 μM. Based on all of the treatments examined (i.e., Alpha-GEE; glucosamine; NSAID (Rimadyl); and TNFα receptor antagonist), Alpha-GEE produced the most dramatic decrease in PGE2 at the early 4-hour time point. […] The reduction in PGE2 release at the early 4 hour time point was greater than that observed with the NSAID, Rimadyl, glucosamine, or TNFα receptor blocker. The maximal effect of Alpha-GEE on PGE2 release from chondrocytes was observed within 8 hours, where a 75% reduction in PGE2 release was observed.

Creatinine, post-trial ([2]; mean ± SD after two weeks, pre-trial 1.2 ± 0.7, normal range 0.3-1.4): 1.5 ± 0.7 mg/dL | Total Protein, post-trial ([2]; mean ± SD after two weeks, pre-trial 6.6 ± 0.4, normal range 5.4-8.2): 6.5 ± 0.4 g/dL | BUN, post-trial ([2]; mean ± SD after two weeks, pre-trial 24 ± 22, normal range 7-25): 24 ± 19 mg/dL | Glucose, post-trial ([2]; mean ± SD after two weeks, pre-trial 102 ± 11, normal range 80-110): 101 ± 11 mg/dL | ALP, post-trial ([2]; mean ± SD after two weeks, pre-trial 110 ± 104, normal range 20-150): 103 ± 131 U/L | change in post-trial blood chemistry profiles compared to pre-trial values ([2]; two-week trial): no significant changes
Substance: ethyl (α-guanido-methyl) ethanoate [Alpha-GEE]
reduction in HCPI score ([1]; after the first week, 36 mg/kg/day oral, not statistically different from placebo): 10-15% | HCPI score, post-trial value ([1]; after two weeks, 36 mg/kg/day oral, pre-trial value 28, scale 0 to 44): 15 | HCPI scores at the conclusion of the study versus placebo ([1]; two weeks, p<0.001): significantly different | magnitude of change in HCPI scores during the entire trial (mean+SD) ([1]; two weeks, range 2 to 20, placebo 3+4): 13+7 | ALT, post-trial ([2]; mean ± SD after two weeks, pre-trial 89 ± 99, normal range 10-118): 53 ± 37 U/L | reduction in the release of PGE2 from brain endothelial cells ([3]; concentration of about 20 μM or more): ≥ 50% | reduction in the release of PGE2 from brain endothelial cells ([3]; concentration of about 1000 μM or more): greater than 50% | reduction in PGE2 release from canine chondrocytes ([4]; 4 hours): approximately 60% | reduction in PGE2 release from canine chondrocytes (maximal effect) ([4]; within 8 hours): 75%
